Structures can show the parent of a compound that is named as a salt.
System: Rat skeletal muscle-derived L6 myoblasts (differentiated into myotube cells)
Test: Evaluation of glycogen accumulation in L6
Assay type: cell-based
Settings: [14C] glycogen from D-[U-C14] glucose, 3 hours incubation, 100% = compound of Example 1 of WO/2011/058154 at 30 μM
Procedure: The glycogen accumulation activity was evaluated in skeletal muscle cells according to the published article (ANALYTICAL BIOCHEMISTRY, Vol. 261: 159-163, 1998) by the following method. Rat skeletal muscle-derived L6 myoblasts (ATCC) were seeded in a 96-well collagen-coated plate (IWAKI, 4860-010) by using a growth medium (10% FBS-containing α-MEM medium (NACALAI TESQUE, INC., 21444-05)) under a condition of 4×10^4 cells/100 μL/well. After culturing under conditions of 37° C. and 5% CO2 overnight, the medium was replaced with a differentiation medium (2% FBS-containing α-MEM medium), followed by culturing for 3 days to differentiate the myoblasts into myotube cells. On the day of evaluation, the medium was replaced with a glucose-deprived medium (0.1% BSA-containing DMEM medium (Gibco, 11966)). After culturing for 4 hours, the medium was replaced with assay media (0.1% BSA-containing DMEM medium (NACALAI TESQUE, INC., 08456-65)) containing 0.6% DMSO and one of the test compounds at a concentration which was twice the final evaluation concentration at 15 μL/well. Further, an assay medium containing D-[U—C14] glucose (PerkinElmer Inc., NEC042V) at […] was added at 15 μL/well to adjust the final volume to 30 μL/well. Then, the cells were incubated under conditions of 37° C. and 5% CO2 for 3 hours. After the incubation, each medium was removed by suction with an aspirator, and the wells were rinsed with PBS at 200 μL/well twice. Then, 1 N NaOH was added at 50 μL/well, and the cells were lysed by incubation at 60° C. for 10 minutes. After the temperature of the lysed cells was returned to room temperature, each whole cell lysate and […] glycogen (Sigma-Aldrich, G8876) at 5 μL/well were added to a Multiscreen HTS (Millipore, MSFCN6B) to which 100% ethanol was added in advance at 100 μL/well, followed by incubation at 4° C. for 20 minutes. After the incubation, aspiration was conducted by using Multiscreen HTS Vacuum Manifold (Millipore), followed by rinse with 66% ethanol at 200 μL/well twice. After ethanol remaining on the filter was completely removed by drying, MicroScint40 (PerkinElmer Inc.) was added at 50 μL/well, the amount of [14C] glycogen was measured with TopCountNXT (PerkinElmer Inc.). The activity of each test compound was calculated by the following method. Specifically, the relative activity (%) was calculated as 100×(B−A)/(C−A), where A represents a value (cpm) measured for a well not containing the compound but containing only DMSO, B represents a value measured for a well containing the compound and DMSO, and C represents a value measured for a well containing the compound of Example 1 of WO/2011/058154 at a final concentration of 30 μM. EC50 representing the concentration of the compound at which an increase in activity by 50% was caused was calculated using XLfit (idbs).

## COCCN(CC(=O)O)C(=O)c1cccc(COc2ccc(-c3cc(F)c(F)cc3SC)cc2)c1 [Example 6, 2-[[3-[[4-(4,5-Difluoro-2-methylsulfanyl-phenyl)phenoxy]methyl]benzoyl]-(2-methoxyethyl)amino]acetic Acid]
  EC50: 570 nM

## CSc1cc(F)c(F)cc1-c1ccc(OCc2cccc(C(=O)N(CC(=O)O)Cc3ccccn3)c2)cc1 [Example 20, 2-[[3-[[4-(4,5-Difluoro-2-methylsulfanyl-phenyl)phenoxy]methyl]benzoyl]-(2-pyridylmethyl)amino]acetic Acid Trifluoroacetate]
  EC50: 710 nM

## CNCCN(CC(=O)O)C(=O)c1cccc(COc2ccc(-c3cc(F)c(F)cc3SC)cc2)c1 [Example 28, 2-[[3-[[4-(4,5-Difluoro-2-methylsulfanyl-phenyl)phenoxy]methyl]benzoyl]-[2-(methylamino)ethyl]amino]acetic Acid Trifluoroacetate]
  EC50: < 300 nM

## CSc1cc(F)c(F)cc1-c1ccc(OCc2cccc(C(=O)N(CC(=O)O)CC3CCNCC3)c2)cc1 [Example 35, 2-[[3-[[4-(4,5-Difluoro-2-methylsulfanyl-phenyl)phenoxy]methyl]benzoyl]-(4-piperidylmethyl)amino]acetic Acid Trifluoroacetate]
  EC50: 630 nM

## CSc1cc(F)c(F)cc1-c1ccc(OCc2cccc(C(=O)N(CCN3CCCC3)CC(=O)O)c2)cc1 [Example 40, 2-[[3-[[4-(4,5-Difluoro-2-methylsulfanyl-phenyl)phenoxy]methyl]benzoyl]-(2-pyrrolidin-1-ylethyl)amino]acetic Acid Trifluoroacetate]
  EC50: 5400 nM

## CSc1cc(F)c(F)cc1-c1ccc(OCc2cccc(C(=O)N(CC(=O)O)Cc3ncco3)c2)cc1 [Example 42, 2-[[3-[[4-(4,5-Difluoro-2-methylsulfanyl-phenyl)phenoxy]methyl]benzoyl]-(oxazol-2-ylmethyl)amino]acetic Acid]
  EC50: 880 nM

## COC[C@H]1CC[C@@H](C(=O)O)N1C(=O)c1cccc(COc2ccc(-c3cc(F)c(F)cc3SC)cc2)c1 [Example 65, (2S,5R)-1-[3-[[4-(4,5-Difluoro-2-methylsulfanyl-phenyl)phenoxy]methyl]benzoyl]-5-(methoxymethyl)pyrrolidine-2-carboxylic Acid]
  EC50: 1800 nM

From US20160046592A1, “PHARMACEUTICAL COMPOSITION FOR THE TREATMENT OF DIABETES” (Ajinomoto Co., Inc., priority 2013, published 2016)
